Read-outs that look alike come from different tables or passages of the source.
Experiments:
[1] = Mouse toxicity study of formulation; assay type: in vivo; settings: 30% (w/w) PEG 400 formulation
Source text: Thus, it was decided not to further pursue this formulation. In view of the preliminary experiments non-aqueous solvents were not used in the subject formulations.

[2] = tested on: Compound 1 reference standard (RS) specific T-cells; test: Inhibition of IL-2 secretion from T-cells of immunized mice after s.c. treatment (ELISA); assay type: in vivo
Source text: The biological activity was monitored by inhibition of IL-2 secretion from Compound 1 reference standard (RS) specific T-cells following subcutaneous (s.c.) treatment with the lyophilized compound solution, i.e. the drug product (DP), at two concentrations. The results of the treatment are compared to those of treating mice with Compound 1 (RS) in phosphate buffered saline (PBS).

[3] = tested on: LN cells; test: TGF-β secretion by cultured LN cells of immunized and treated mice (ELISA); assay type: in vivo, BALB/c mice; settings: all Compound 1 treatment groups (25-200 μg/mouse)
Protocol: A group of 20 mice were immunized with 50 μg/mouse of Compound 1 RS. The immunized mice were allocated to five treatment groups as follows: placebo, 25, 50, 100 and 200 μg/mouse of Compound 1 DP (subcutaneous administration). Ten days post immunization and treatment, LN was extracted and single cell suspension was prepared. The in-vitro secretion of IFN-γ and TGF-β by the cultured cells in response to activation with several concentrations of Compound 1 RS was then measured. [table] […] Secretion of IFN-γ and TGF-β, as indication of cellular response, were determined by ELISA of culture media (48 hrs for IFN-γ and 72 hrs for TGF-β).

[4] = tested on: (NZB×NZW)F1 female mice; test: Lupus symptoms in SLE-prone (NZB×NZW)F1 female mice; assay type: in vivo, mouse
Protocol: The same batch of drug substance was used in this study and in the first Phase I clinical trial with Compound 1. The mice were followed for anti-dsDNA antibodies and for proteinuria. When the mice were sacrificed, the intensity of ICD was determined in kidneys.

[5] = tested on: SLE subjects; test: Phase Ib clinical study, multiple s.c. doses, tolerability and safety; assay type: in vivo, human; settings: multiple s.c. doses of 0.5, 1 or 2.5 mg in 120 mg Captisol®, 12 injections in 4 weeks
Protocol: This study is being performed in order to evaluate the safety and tolerability of repeated Compound 1 sc administration to SLE subjects. […] Subjects are monitored on planned visits scheduled at 2, 4, 8 and 12 weeks after start of dosing. Safety and tolerability are evaluated using tests similar to those described in the Phase Ia Clinical Study above.

[6] = tested on: PBL of SLE patients stimulated with human 16/6Id mAb; assay type: cell-based; settings: for inhibition of proliferative responses to human 16/6Id mAb: PBL of one SLE patient
Protocol: Cells were then harvested and radioactivity was counted using a β-counter. Results were expressed as mean counts per minute (cpm) of triplicate cultures. Stimulation indices (the ratio of mean cpm at the optimal concentration of 16/6Id to mean cpm without 16/6Id) were then calculated. A stimulation index (SI)≧2 was considered positive. […] Inhibition of above 50% of the proliferative capacity was considered positive. The Table represents the highest positive inhibition capacity for each peptide. […] Both peptides inhibited the proliferation of PBL of 18/19(95%) of responders tested. It can also be seen in the Table that the magnitudes of inhibitions were similar for both peptides. Thus, it can be concluded that peptides based on CDR1 and CDR3 of the human 16/6Id mAb are efficient inhibitors of the proliferation of PBL of SLE patients to the human 16/6Id mAb.

[7] = tested on: PBL of SLE patients stimulated with phytohemagglutinin (PHA); test: Proliferation of PBL stimulated with mitogen PHA; assay type: cell-based, human; settings: PHA 2 μg/ml; PBL of one SLE patient, FIG. 9
Protocol: To this end the peptides hCDR1 or hCDR3 were added to cultures of PBL of SLE patients that were stimulated with the mitogen phytohemagglutinin (PHA, 2 μg/ml).

[8] = tested on: IL-2 secretion by PBL of SLE patients; test: Inhibition of IL-2 secretion by PBL stimulated with human 16/6Id mAb (CTLL line); assay type: cell-based
Protocol: It was of interest to find out whether the hCDR peptides are capable of inhibiting IL-2 secretion by PBL of SLE patients following stimulation with the human 16/6Id mAb. […] To this end, PBL of SLE patients were incubated with the human 16/6Id mAb in the absence or presence of the peptides hCDR1 or hCDR3. Supernatants of the cultures were collected following 48 hours of incubation. Assays to determine levels of IL-2 in the supernatants were performed using the CTLL IL-2 dependent line. Briefly, cells of the CTLL line (2×10^4/well) were incubated in the presence of the different supernatants for 24 hours, followed by the addition of ^3H-thymidine for an additional 18-hour incubation period. Cells were then harvested and radioactivity counted using a β-counter. Results were calculated based on recombinant human IL-2 used as a standard. The ability of the peptides to inhibit the IL-2 secretion of PBL of 23 responders stimulated by the human 16/6 Id was tested. […] Inhibition of proliferative responses of PBL directly correlated with IL-2 inhibition by the CDR-based peptides.

[9] = treated 50 μg/mouse s.c., activator Compd. 1 RS 5 μg/ml
[10] = treated 50 μg/mouse s.c., activator Compd. 1 RS 10 μg/ml
[11] = treated 50 μg/mouse s.c., activator Compd. 1 RS 25 μg/ml
[12] = treated 50 μg/mouse s.c., activator Compd. 1 RS 50 μg/ml
[13] = treated 50 μg/mouse s.c., activator Compd. 1 RS 100 μg/ml
[14] = treated 50 μg/mouse s.c., activator Compd. 1 RS […]
[15] = treated 200 μg/mouse s.c., activator Compd. 1 RS 5 μg/ml
[16] = treated 200 μg/mouse s.c., activator Compd. 1 RS 10 μg/ml
[17] = treated 200 μg/mouse s.c., activator Compd. 1 RS 25 μg/ml
[18] = treated 200 μg/mouse s.c., activator Compd. 1 RS 50 μg/ml
[19] = treated 200 μg/mouse s.c., activator Compd. 1 RS 100 μg/ml

H-GYYWSWIRQPPGKGEEWIG-OH [Compound 1]
adverse effects [1]: may have been the cause of some adverse effects | Average inhibition (%) (at the range of 5-100 μg/ml) ([2]; treated 50 μg/mouse s.c.): 45.6% | IL-2 secretion ([2]; treated 50 μg/mouse s.c., activator Compd. 1 RS 0 μg/ml): BQL | IL-2 secretion ([2]; treated 50 μg/mouse s.c., activator Compd. 1 RS 0.5 μg/ml): 9 pg/mL | IL-2 secretion ([2]; treated 50 μg/mouse s.c., activator Compd. 1 RS 1 μg/ml): BQL | % inhib. of IL-2 secretion [2, 9]: 55% | IL-2 secretion [2, 9]: 9 pg/mL | % inhib. of IL-2 secretion [2, 10]: 38% | IL-2 secretion [2, 10]: 16 pg/mL | % inhib. of IL-2 secretion [2, 11]: 48% | IL-2 secretion [2, 11]: 15 pg/mL | % inhib. of IL-2 secretion [2, 12]: 47% | IL-2 secretion [2, 12]: 21 pg/mL | % inhib. of IL-2 secretion [2, 13]: 41% | IL-2 secretion [2, 13]: 25 pg/mL | % inhib. of IL-2 secretion [2, 14]: 51% | IL-2 secretion [2, 14]: 8 pg/mL | IL-2 secretion ([2]; treated 50 μg/mouse s.c., activator Con A […]): 6,215 pg/ml | Average inhibition (%) (at the range of 5-100 μg/ml) ([2]; treated 200 μg/mouse s.c.): 60.4% | IL-2 secretion ([2]; treated 200 μg/mouse s.c., activator Compd. 1 RS 0 μg/ml): BQL | IL-2 secretion ([2]; treated 200 μg/mouse s.c., activator Compd. 1 RS 0.5 μg/ml): 10 pg/mL | IL-2 secretion ([2]; treated 200 μg/mouse s.c., activator Compd. 1 RS 1 μg/ml): BQL | % inhib. of IL-2 secretion [2, 15]: 60% | IL-2 secretion [2, 15]: 8 pg/mL | % inhib. of IL-2 secretion [2, 16]: 58% | IL-2 secretion [2, 16]: 11 pg/mL | % inhib. of IL-2 secretion [2, 17]: 63% | IL-2 secretion [2, 17]: 11 pg/mL | % inhib. of IL-2 secretion [2, 18]: 62% | IL-2 secretion [2, 18]: 15 pg/mL | % inhib. of IL-2 secretion [2, 19]: 58% | IL-2 secretion [2, 19]: 18 pg/mL | IL-2 secretion ([2]; treated 200 μg/mouse s.c., activator Compd. 1 RS […]): BQL | IL-2 secretion ([2]; treated 200 μg/mouse s.c., activator Con A […]): 5,403 pg/ml | TGF-β secreted level [3]: below the detection limit | Mean Proteinuria ± SEM ([4]; 25 μg/mouse s.c. once a week in Captisol®, 5 weeks following treatment initiation): 0.16 ± 0.05 g/L | Mean Proteinuria ± SEM ([4]; 25 μg/mouse s.c. once a week in Captisol®, 7 weeks following treatment initiation): 1.26 ± 1.09 g/L | Mean Proteinuria ± SEM ([4]; 25 μg/mouse s.c. once a week in Captisol®, 8 weeks following treatment initiation): 0.5 ± 0.31 g/L | Mean Proteinuria ± SEM ([4]; 25 μg/mouse s.c. once a week in Captisol®, 10 weeks following treatment initiation): 0.56 ± 0.3 g/L | Mean Proteinuria ± SEM ([4]; 50 μg/mouse s.c. once a week in Captisol®, 5 weeks following treatment initiation): 0.75 ± 0.3 g/L | Mean Proteinuria ± SEM ([4]; 50 μg/mouse s.c. once a week in Captisol®, 7 weeks following treatment initiation): 0.81 ± 0.3 g/L | Mean Proteinuria ± SEM ([4]; 50 μg/mouse s.c. once a week in Captisol®, 8 weeks following treatment initiation): 1.09 ± 0.4 g/L | Mean Proteinuria ± SEM ([4]; 50 μg/mouse s.c. once a week in Captisol®, 10 weeks following treatment initiation): 1.29 ± 0.3 g/L | ICD (Immune Complex Deposits) intensity, Mean ± SEM ([4]; 50 μg/mouse, kidneys at sacrifice, scale 0 = none, 1 = moderate, 2 = severe, 3 = severe/extremely intense): 1.90 ± 0.23 | levels of dsDNA-specific antibodies versus control ([4]; 25 or 50 μg/mouse, after 10 treatment injections): no significant differences | intensity of immune complex deposits in kidney sections versus control group ([4]; either dose level (25 or 50 μg/mouse), FIG. 6): much lower | safety and tolerability [5]: safe and well tolerated | Percent Inhibition of proliferation, Mean ± SD [6]: 68.12 ± 9.57% | inhibition of proliferative responses to human 16/6Id mAb ([6]; FIG. 10): inhibited efficiently | inhibition of proliferative responses to human 16/6Id mAb ([6]; FIG. 11): did inhibit efficiently | responders whose PBL proliferation was inhibited (above 50%) ([6]; of the 19 responders tested): 84.2% | inhibition of proliferative responses to mitogen PHA [7]: could not inhibit | patients whose PBL IL-2 secretion was inhibited / tested ([8]; 23 responders): 21/23 | Maximum inhibition % ([8]; IL-2 secretion with 16/6 Id alone = 100%): 84 ± 31% | Inhibitory Activity* % (patients with inhibition of 50% or more) ([8]; PBL of 23 responders): 91 (21/23) % | inhibition of IL-2 secretion ([8]; PBL of one SLE patient, FIG. 12): 100%

Reference: patent publication US20130023485A1, “PARENTERAL FORMULATIONS OF PEPTIDES FOR THE TREATMENT OF SYSTEMATIC LUPUS ERYTHEMATOSUS” (Teva Pharmaceutical Industries, Ltd., priority 2003, published 2013)
